In PubChem BioAssay AID248 (DTP/NCI, 2004):
“And” between values parts separate entries of the source, which are not always exact repeats. Identical values can stand only once. Toxic doses and inconclusive results are not listed.

Tested on: L1210 leukemia ip in BDF1 mice, survival T/C
Assay: NCI In Vivo Anticancer Drug Screen. Data for tumor model L1210 Leukemia (intraperitoneal) in B6D2F1 (BDF1) mice
Settings: endpoint: mean survival time, higher = longer survival
Outline: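 Tumor cells were implanted, animals were treated, and survival was followed. The result divides the treated measurement by the vehicle-control measurement.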

[1] = dose: 50.0 mg/kg/injection, schedule: Q01DX009 (ip), vehicle: saline
[2] = dose: 75.0 mg/kg/injection, schedule: Q01DX001 (ip), vehicle: other
[3] = dose: 150.0 mg/kg/injection, schedule: Q01DX001 (ip), vehicle: other
[4] = dose: 100.0 mg/kg/injection, schedule: Q04DX003 (ip), vehicle: saline
[5] = dose: 200.0 mg/kg/injection, schedule: Q04DX003 (ip), vehicle: saline
[6] = dose: 400.0 mg/kg/injection, schedule: Q04DX003 (ip), vehicle: saline with Tween-80

With `CCCCCC(C)SC#N` (stereo unspecified) the T/C (dose: 25.0 mg/kg/injection, schedule: Q01DX009 (ip), vehicle: saline with Tween-80) was 107 % of control, the T/C (dose: 50.0 mg/kg/injection, schedule: Q01DX009 (ip), vehicle: saline with Tween-80) was 102 % of control and the T/C (dose: 100.0 mg/kg/injection, schedule: Q01DX009 (ip), vehicle: saline with Tween-80) was 88 % of control.
For `CCn1c(=O)cn[nH]c1=O`, the T/C [1] was 97 % of control, the T/C (dose: 100.0 mg/kg/injection, schedule: Q01DX009 (ip), vehicle: saline) was 97 % of control and the T/C (dose: 200.0 mg/kg/injection, schedule: Q01DX009 (ip), vehicle: saline) was 94 % of control.
For `COCC(=N)C(C#N)(OC)C(=O)c1ccccc1` (stereo unspecified), the T/C [2] was 101 % of control and the T/C [3] was 90 % of control.
In the case of `O=C(NCCCl)Sc1ccc(Cl)cc1`, the T/C (dose: 20.0 mg/kg/injection, schedule: Q04DX003 (ip), vehicle: Klucel (hydroxypropylcellulose) (HPC)) was 92 % of control, the T/C (dose: 40.0 mg/kg/injection, schedule: Q04DX003 (ip), vehicle: Klucel (hydroxypropylcellulose) (HPC)) was 90 % of control and the T/C (dose: 80.0 mg/kg/injection, schedule: Q04DX003 (ip), vehicle: Klucel (hydroxypropylcellulose) (HPC)) was 93 % of control.
With `OC(CC(O)(C(F)(F)Cl)C(F)(F)Cl)c1cccs1` (stereo unspecified) the T/C [4] was 93 % of control, the T/C [5] was 95 % of control and the T/C (dose: 400.0 mg/kg/injection, schedule: Q04DX003 (ip), vehicle: saline) was 105 % of control.
For `CCOC(=O)C(C#N)C(=N)C1CC(C)(C)OC1=O` (stereo unspecified), the T/C [2] was 101 % of control and the T/C [3] was 106 % of control.
With `NC(=O)c1c(Br)n(C2OC(CO)C(O)C2O)c2ncnc(N)c12` (stereo unspecified) the T/C (dose: 50.0 mg/kg/injection, schedule: Q04DX003 (ip), vehicle: saline with Tween-80) was 102 % of control, the T/C (dose: 100.0 mg/kg/injection, schedule: Q01DX001 (ip), vehicle: saline) was 121 % of control and the T/C (dose: 178.0 mg/kg/injection, schedule: Q01DX001 (ip), vehicle: saline) was 111 % of control. For the same compound, the T/C (dose: 267.0 mg/kg/injection, schedule: Q01DX001 (ip), vehicle: saline) was 109 % of control, the T/C (dose: 400.0 mg/kg/injection, schedule: Q01DX001 (ip), vehicle: saline) was 120 % of control and the T/C [6] was 150 % of control.
With `CN(C)C(=O)C(=O)C1C=Cc2ccccc21` (stereo unspecified) the T/C (dose: 100.0 mg/kg/injection, schedule: Q04DX003 (ip), vehicle: saline with Tween-80) was 93 % of control, the T/C (dose: 200.0 mg/kg/injection, schedule: Q04DX003 (ip), vehicle: saline with Tween-80) was 88 % of control and the T/C [6] was 102 % of control.
With `COC(=O)[C@@H]1c2cc3c(c(O)c2[C@@H](OC)C[C@@]1(C)O)C(=O)c1c(O)cc2c(c1C3=O)OC1O[C@@]2(C)[C@H](O)[C@@H](N(C)C)[C@@H]1O` the T/C (dose: 3.12 mg/kg/injection, schedule: Q01DX015 (ip), vehicle: carboxymethylcellulose (CMC)) was 104 % of control, the T/C (dose: 6.25 mg/kg/injection, schedule: Q01DX009 (ip), vehicle: saline) was 106 % of control and the T/C (dose: 6.25 mg/kg/injection, schedule: Q01DX015 (ip), vehicle: carboxymethylcellulose (CMC)) was 108 % of control. The T/C (dose: 12.5 mg/kg/injection, schedule: Q01DX009 (ip), vehicle: saline) was 112 % of control, the T/C (dose: 12.5 mg/kg/injection, schedule: Q01DX015 (ip), vehicle: carboxymethylcellulose (CMC)) was 120 % of control and the T/C (dose: 25.0 mg/kg/injection, schedule: Q01DX009 (ip), vehicle: saline) was 109 % of control. The T/C (dose: 50.0 mg/kg/injection, schedule: Q01DX001 (ip), vehicle: carboxymethylcellulose (CMC)) was 105 % of control, the T/C [1] was 112 % of control and the T/C (dose: 50.0 mg/kg/injection, schedule: Q01DX015 (ip), vehicle: carboxymethylcellulose (CMC)) was 122 % of control. The T/C (dose: 100.0 mg/kg/injection, schedule: Q01DX001 (ip), vehicle: carboxymethylcellulose (CMC)) was 117 % of control.
`N#[N+]c1nc[nH]c1C(N)=O` was tested, and the T/C (dose: 0.4 mg/kg/injection, schedule: Q03HX008 (ip), vehicle: steriod suspending solution) was 92 % of control, the T/C (dose: 0.6 mg/kg/injection, schedule: Q03HX008 (ip), vehicle: steriod suspending solution) was 96 % of control and the T/C (dose: 0.9 mg/kg/injection, schedule: Q03HX008 (ip), vehicle: steriod suspending solution) was 97 % of control. For the same compound, the T/C (dose: 1.3 mg/kg/injection, schedule: Q03HX008 (ip), vehicle: steriod suspending solution) was 89 % of control, the T/C (dose: 1.8 mg/kg/injection, schedule: Q03HX008 (ip), vehicle: steriod suspending solution) was 92 % of control and the T/C (dose: 2.6 mg/kg/injection, schedule: Q03HX008 (ip), vehicle: steriod suspending solution) was 97 % of control. The T/C (dose: 3.75 mg/kg/injection, schedule: Q01DX001 (ip), vehicle: steriod suspending solution) was 93 % of control, the T/C (dose: 3.8 mg/kg/injection, schedule: Q03HX008 (ip), vehicle: steriod suspending solution) was 95 % of control and the T/C (dose: 6.25 mg/kg/injection, schedule: Q01DX001 (ip), vehicle: steriod suspending solution) was 96 % of control. The T/C (dose: 12.5 mg/kg/injection, schedule: Q01DX001 (ip), vehicle: steriod suspending solution) was 99 % of control.
For `O=C(CCl)Nc1cc(Cl)ccc1N1CCCCC1`, the T/C (dose: 100.0 mg/kg/injection, schedule: Q01DX009 (ip), vehicle: acetone) was 100 % of control, the T/C (dose: 200.0 mg/kg/injection, schedule: Q01DX009 (ip), vehicle: acetone) was 91 % of control and the T/C (dose: 400.0 mg/kg/injection, schedule: Q01DX009 (ip), vehicle: acetone) was 91 % of control.
`Nc1cc(C(=O)Nc2ccc(C3=NCCN3)cc2)cc(C(=O)Nc2ccc(C3=NCCN3)cc2)c1` was tested, and the T/C (dose: 4.0 mg/kg/injection, schedule: Q01DX Z (ip), vehicle: saline) was 113 % of control, the T/C (dose: 8.0 mg/kg/injection, schedule: Q01DX004 (im), vehicle: olive oil, sesame oil, peanut oil) was 95 % of control and the T/C (dose: 8.0 mg/kg/injection, schedule: Q01DX Z (ip), vehicle: saline) was 107 % of control. For the same compound, the T/C (dose: 16.0 mg/kg/injection, schedule: Q01DX004 (im), vehicle: olive oil, sesame oil, peanut oil) was 95 % of control, the T/C (dose: 16.0 mg/kg/injection, schedule: Q01DX Z (ip), vehicle: saline) was 123 % of control and the T/C (dose: 31.0 mg/kg/injection, schedule: Q01DX Z (ip), vehicle: carboxymethylcellulose (CMC)) was 168 % of control. The T/C (dose: 32.0 mg/kg/injection, schedule: Q01DX004 (im), vehicle: olive oil, sesame oil, peanut oil) was 109 % of control, the T/C (dose: 32.0 mg/kg/injection, schedule: Q01DX010 (sc), vehicle: saline) was 159 % of control and the T/C (dose: 62.0 mg/kg/injection, schedule: Q01DX Z (ip), vehicle: carboxymethylcellulose (CMC)) was 197 % of control. For the same compound, the T/C (dose: 62.5 mg/kg/injection, schedule: Q01DX010 (oral), vehicle: saline) was 115 % of control, the T/C (dose: 64.0 mg/kg/injection, schedule: Q01DX004 (im), vehicle: olive oil, sesame oil, peanut oil) was 114 % of control and the T/C (dose: 64.0 mg/kg/injection, schedule: Q01DX010 (sc), vehicle: saline) was 179 % of control. For the same compound, the T/C (dose: 64.0 mg/kg/injection, schedule: Q01DX Z (ip), vehicle: saline) was 249 % of control, the T/C (dose: 125.0 mg/kg/injection, schedule: Q01DX010 (oral), vehicle: saline) was 87 % of control and the T/C (dose: 125.0 mg/kg/injection, schedule: Q01DX Z (ip), vehicle: carboxymethylcellulose (CMC)) was 155 % of control. The T/C (dose: 128.0 mg/kg/injection, schedule: Q01DX010 (sc), vehicle: saline) was 186 % of control, the T/C (dose: 128.0 mg/kg/injection, schedule: Q01DX Z (ip), vehicle: saline) was 212 % of control and the T/C (dose: 250.0 mg/kg/injection, schedule: Q01DX010 (oral), vehicle: saline) was 88 % of control. For the same compound, the T/C (dose: 250.0 mg/kg/injection, schedule: Q01DX Z (ip), vehicle: carboxymethylcellulose (CMC)) was 117 % of control, the T/C (dose: 500.0 mg/kg/injection, schedule: Q01DX010 (oral), vehicle: saline) was 117 % of control and the T/C (dose: 1000.0 mg/kg/injection, schedule: Q01DX010 (oral), vehicle: saline) was 115 % of control.
For `CC[N+](C)(C)CCCOC(=O)C1C2CC3OC(=O)C1C3C2` (stereo unspecified), the T/C (dose: 25.0 mg/kg/injection, schedule: Q04DX003 (ip), vehicle: saline) was 101 % of control, the T/C (dose: 50.0 mg/kg/injection, schedule: Q04DX003 (ip), vehicle: saline) was 105 % of control and the T/C [4] was 103 % of control and 108 % of control. For the same compound, the T/C [5] was 97 % of control.
With `CN(CCCl)CC1C(c2ccccc2)C1c1ccccc1` (stereo unspecified) the T/C (dose: 25.0 mg/kg/injection, schedule: Q04DX002 (ip), vehicle: Klucel (hydroxypropylcellulose) (HPC)) was 103 % of control, the T/C (dose: 50.0 mg/kg/injection, schedule: Q04DX002 (ip), vehicle: Klucel (hydroxypropylcellulose) (HPC)) was 111 % of control and the T/C (dose: 100.0 mg/kg/injection, schedule: Q04DX002 (ip), vehicle: Klucel (hydroxypropylcellulose) (HPC)) was 107 % of control and 111 % of control.
